Measurements reported in patent US20230055021A1, “METHODS FOR TREATING PSYCHIATRIC DISORDERS OR SYMPTOMS THEREOF USING NCAM PEPTIDE MIMETICS” (The Board of Trustees of the Leland Stanford Junior …, priority 2012, published 2023).

Experiments:
[1] = test system: adult rats; assay: forced swim test (FST), depression-like behavior; format: in vivo
Procedure: The NCAM peptide mimetic FGLm (5 μg) or vehicle was administered intracerebroventricularly (i.c.v.) to adult rats. […]
FGLL (10 mg/kg, s.c.) or control was also administered to adult rats via injection every 24 hours for 16 days. Animals were tested for locomotion on Day 13, tested for anxiety-like behavior with the EPM on Day 14, tested for depression-like behavior with the FST on Days 15 and 16, and sacrificed on Day 17. […]

[2] = test system: adult rats; assay: elevated plus maze (EPM), anxiety-like behavior; format: in vivo; details: 1, 5 or 10 mg/kg s.c., injected 30 minutes before test
Procedure: The NCAM peptide mimetic FGLL (1 mg/kg, 5 mg/kg, or 10 mg/kg) or control was administered subcutaneously (s.c.) to adult rats. For the elevated plus maze (EPM), which measures anxiety-like behavior, animals were injected 30 minutes before the test. For the FST, which measures depression-like behavior, animals were injected 1 hour and 5 hours after Day 1 and 30 minutes before Day 2.
The NCAM peptide mimetic plannexin (10 mg/kg) or vehicle control was acutely administered intraperitoneally (i.p.) to adult rats.
Plannexin (10 mg/kg, i.p.) or control was also chronically administered to adult rats via injection every 48 hours on odd days. Animals were tested for locomotion on Day 13, tested for anxiety-like behavior with the EPM on Day 14, tested for depression-like behavior with the FST on Days 15 and 16, and sacrificed on Day 17.

[3] = 10 mg/kg s.c. every 24 hours for 16 days, FST on Days 15 and 16

| Compound | climbing in FST [1, 3] | effect on depression as measured by the FST [1, 3] | immobility in FST [1, 3] | effect on anxiety as measured by the EPM [2] | time spent in the Closed parts of the EPM ([2]; effect at higher doses) | effect on depression as measured by the FST ([1]; 5 μg i.c.v., vs vehicle) | immobility in FST ([1]; 5 μg i.c.v., vs vehicle) | swimming in FST ([1]; 5 μg i.c.v., vs vehicle) |
| --- | --- | --- | --- | --- | --- | --- | --- | --- |
| CC(C)[C@H](NC(=O)[C@H](CCC(=O)O)NC(=O)CNCC(=O)N[C@@H](CCC(=O)O)C(=O)N[C@H](C(=O)N[C@H](C(=O)N[C@@H](C)C(=O)N[C@@H](CCC(=O)O)C(=O)N[C@@H](CC(N)=O)C(=O)N[C@@H](CCC(N)=O)C(=O)N[C@@H](CCC(N)=O)C(=O)NCC(=O)N[C@@H](CCCCN)C(=O)N[C@@H](CO)C(=O)N[C@@H](CCCCN)C(=O)N[C@@H](C)C(N)=O)C(C)C)C(C)C)C(=O)N[C@H](C(=O)N[C@@H](C)C(=O)N[C@@H](CCC(=O)O)C(=O)N[C@@H](CC(N)=O)C(=O)N[C@@H](CCC(N)=O)C(=O)N[C@@H](CCC(N)=O)C(=O)NCC(=O)N[C@@H](CCCCN)C(=O)N[C@@H](CO)C(=O)N[C@@H](CCCCN)C(=O)N[C@@H](C)C(N)=O)C(C)C (stereo in doubt) [FGLL] | significantly more climbing | decreased depression | less immobility | increased anxiety | significantly increased |  |  |  |
| EVYVVAENQQGKSKA [FGLm, NCAM peptide mimetic] |  |  |  |  |  | decreased depression | less immobility | significantly more swimming |
